Results on 13 compounds are retold here after ChEMBL document CHEMBL1201862, “PubChem BioAssay data set” (2004).

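Five concentrations, 48 hours, 96-well plates. Abbreviation: GI50, concentration required for 50% inhibition of growth.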 Calls of active or inactive are those of the source. No stated cut-off is given here; in the data, active = GI50 up to about 1.1 µM and inactive = higher.

Some test systems named below: KM-20L2; DMS-273; SNB-78; SF-539; DLD-1; HOP-92; SK-OV-3; NCI/ADR-RES; MCF7; RPMI-8226; SN12C; Malme-3M; OVCAR-3; ACHN; M14; SR; TK-10; MDA-MB-435; T47D; PC-3.
Common to all, as to assay: NCI tumour cell line growth inhibition, 48 h

`Nc1nc(Cl)nc2c1ncn2C1CC(O)C(CO)O1` (centres undefined): the GI50 was 2.42 µM (inactive) in the assay with KM-20L2; 3.89 µM (inactive) in the assay with DMS-273; > 100 µM (inactive) in the assay with SNB-78; 20.3 µM (inactive) in the assay with SF-539; > 100 µM (inactive) with DLD-1; 1.3 µM (inactive) in the assay with HOP-92. Besides, the GI50 in the assay with SK-OV-3 is 52.7 µM (inactive); with NCI/ADR-RES it was 0.103 µM (active); in the assay on MCF7 it was 9.75 µM (inactive); in the assay on RPMI-8226 it was 54.2 µM (inactive); in the assay with SN12C it was 0.738 µM (active); with Malme-3M it was > 100 µM (inactive). Further, the GI50 with OVCAR-3 is 25.8 µM (inactive).

With `COC(=O)C(Cc1ccc2c(c1)OCO2)(NC(=O)c1ccccc1)P(=O)(OC)OC` (centres undefined), the GI50 in the assay with ACHN, in the assay with M14, in the assay with KM-20L2, in the assay with DMS-273, in the assay on SNB-78 and in the assay with SF-539 was > 100 µM (inactive) each time. Further, the GI50 with DLD-1, in the assay on HOP-92, in the assay on SK-OV-3, in the assay on SR, in the assay with RPMI-8226 and in the assay with SN12C was > 100 µM (inactive) each time. In the assay on TK-10, the GI50 is > 100 µM (inactive).

Turning to `O=Cc1ccccc1CCn1c(=O)c2cc3c(=O)n(CCc4ccccc4C=O)c(=O)c3cc2c1=O`, the GI50 with ACHN, in the assay with DMS-273, in the assay with SNB-78, with SF-539, in the assay on DLD-1 and with SK-OV-3 was > 100 µM (inactive) each time. Further, the GI50 in the assay on SN12C, in the assay with Malme-3M, in the assay with OVCAR-3 and with TK-10 was > 100 µM (inactive) in each case.

As for `O=c1ccc2ccc(CBr)cc2o1`, the GI50 in the assay on MDA-MB-435 is 3.14 µM (inactive); with M14 it was 2.8 µM (inactive); with T47D it was 2.38 µM (inactive); with SF-539 it was 3.97 µM (inactive); in the assay on HOP-92 it was 1.68 µM (inactive); in the assay on SR, 2.2 µM (inactive). Moreover, the GI50 in the assay on NCI/ADR-RES is 1.69 µM (inactive); in the assay with PC-3, > 100 µM (inactive); with MCF7, 1.9 µM (inactive); with RPMI-8226, 1.61 µM (inactive); in the assay on SN12C, 2.69 µM (inactive); with TK-10, 1.75 µM (inactive).

As to `COc1cc(C2S/C(=C/c3ccccc3)C(=O)N2c2ccccc2Cl)cc(OC)c1OC` (centres undefined), the GI50 was 44.4 µM (inactive) with ACHN; 15.6 µM (inactive) with MDA-MB-435; 20.2 µM (inactive) in the assay on M14; 5.26 µM (inactive) in the assay with T47D; 14.3 µM (inactive) in the assay with HOP-92; 29.6 µM (inactive) in the assay with SK-OV-3. The GI50 in the assay with NCI/ADR-RES is 25.6 µM (inactive); with PC-3, 21.8 µM (inactive); in the assay on MCF7, 18.6 µM (inactive); with SN12C it was 21.4 µM (inactive); in the assay with Malme-3M it was 29.8 µM (inactive); with TK-10 it was 76.2 µM (inactive).

Take `COc1ccc2nc(-n3c(/C=C/c4ccccc4O)nc4ccccc4c3=O)sc2c1`: the GI50 with ACHN is > 100 µM (inactive); in the assay with MDA-MB-435, 19.7 µM (inactive); with M14 it was 33.6 µM (inactive); in the assay with HOP-92, 60.8 µM (inactive); in the assay with SK-OV-3 it was > 100 µM (inactive); in the assay with NCI/ADR-RES, 55.3 µM (inactive). Moreover, the GI50 with PC-3 is 53.5 µM (inactive); with MCF7, 47.5 µM (inactive); in the assay on RPMI-8226, 24.9 µM (inactive); with Malme-3M it was 71.6 µM (inactive); with OVCAR-3 it was > 100 µM (inactive); in the assay with TK-10 it was > 100 µM (inactive).

Consider `C=C1C(=O)O[C@@H]2[C@H](O)[C@@H](C)[C@@H]3C=CC(=O)[C@@]3(C)[C@@H](OC(=O)/C(C)=C/C)[C@H]12`, for which the GI50 with KM-20L2 was 1.75 µM (inactive); in the assay with DMS-273 it was 0.451 µM (active); in the assay on SNB-78, 0.871 µM (active); with SF-539 it was 0.468 µM (active); with DLD-1, 0.728 µM (active); with HOP-92, 0.548 µM (active). Also, the GI50 in the assay with SK-OV-3 is 2.39 µM (inactive); with NCI/ADR-RES it was 0.811 µM (active); in the assay with MCF7 it was 0.518 µM (active); in the assay with RPMI-8226, 0.344 µM (active); in the assay on SN12C, 0.465 µM (active); with Malme-3M, 0.914 µM (active). In addition, the GI50 with OVCAR-3 was 0.719 µM (active).

Take `CC(C)(C)c1ccc2c(c1)OP1(Oc3c(Cl)cc(Cl)c4cccnc34)(O2)Oc2ccc(C(C)(C)C)cc2O1`: the GI50 is 4.92 µM (inactive) in the assay with KM-20L2; 5.04 µM (inactive) in the assay with DMS-273; 23 µM (inactive) in the assay on SNB-78; 7.78 µM (inactive) in the assay on SF-539; 5.2 µM (inactive) in the assay with DLD-1; 2.4 µM (inactive) in the assay with HOP-92. Also, the GI50 in the assay with SK-OV-3 was 11.9 µM (inactive); in the assay with NCI/ADR-RES, 8.11 µM (inactive); in the assay with MCF7 it was 4.58 µM (inactive); in the assay on RPMI-8226, 3.59 µM (inactive); with SN12C it was 11 µM (inactive); in the assay on Malme-3M it was 10.8 µM (inactive). Further, the GI50 with OVCAR-3 is 4.78 µM (inactive).

For `COc1cc2c(cc1O)N=C[C@@H]1CC[C@@H](O)N1C2=O.COc1cc2c(cc1O)N=C[C@@H]1CC[C@H](O)N1C2=O`, the GI50 is 1.72 µM (inactive) in the assay on KM-20L2; 5.48 µM (inactive) in the assay with DMS-273; 0.631 µM (active) in the assay with SNB-78; 0.726 µM (active) with SF-539; 1 µM (active) in the assay on DLD-1; 0.752 µM (active) with HOP-92. The GI50 is 4.41 µM (inactive) in the assay on SK-OV-3; 0.855 µM (active) with NCI/ADR-RES; 0.946 µM (active) in the assay on MCF7; 0.527 µM (active) in the assay on RPMI-8226; 1.04 µM (active) in the assay with SN12C; 0.597 µM (active) in the assay on Malme-3M. In addition, the GI50 in the assay on OVCAR-3 is 0.561 µM (active).

As for `Cc1ccc(S(=O)(=O)OCCN(CCOS(=O)(=O)c2ccc(C)cc2)c2ccc(C=O)cc2)cc1`, the GI50 in the assay on ACHN is 33.6 µM (inactive); with MDA-MB-435, 21.4 µM (inactive); with M14 it was 32.4 µM (inactive); in the assay with T47D, 40.7 µM (inactive); with SF-539 it was 24.8 µM (inactive); with HOP-92 it was 26.1 µM (inactive). Besides, the GI50 with NCI/ADR-RES was 36.2 µM (inactive); with PC-3 it was 32.7 µM (inactive); in the assay on MCF7, 30.7 µM (inactive); with RPMI-8226, 38.4 µM (inactive); with Malme-3M it was 25.4 µM (inactive); in the assay on OVCAR-3, 23.7 µM (inactive). Also, the GI50 in the assay with TK-10 was 36.3 µM (inactive).

As for `CC(=O)C(CN1CCCCC1)C(c1ccccc1)c1c(O)c2ccccc2oc1=O` (centres undefined), the GI50 in the assay with ACHN is > 100 µM (inactive); with MDA-MB-435, > 100 µM (inactive); with M14, > 100 µM (inactive); with T47D, > 100 µM (inactive); in the assay on SF-539, > 100 µM (inactive); in the assay with HOP-92, 41 µM (inactive). Moreover, the GI50 in the assay on SK-OV-3, with SR, in the assay with NCI/ADR-RES, in the assay with PC-3, with MCF7 and in the assay with RPMI-8226 was > 100 µM (inactive) throughout. Moreover, the GI50 in the assay with SN12C, in the assay on Malme-3M, in the assay on OVCAR-3 and with TK-10 was > 100 µM (inactive) throughout.

Consider `Cc1cc(O)nc(NN2C(Cl)C(=O)C2c2cccc(Cl)c2)n1` (centres undefined), for which the GI50 in the assay with ACHN was 30 µM (inactive); in the assay with M14, 17.4 µM (inactive); with KM-20L2 it was 32.9 µM (inactive); in the assay on DMS-273 it was 17.1 µM (inactive); with SNB-78, 22.2 µM (inactive); with SF-539, 17.2 µM (inactive). Also, the GI50 was 20.6 µM (inactive) in the assay with HOP-92; 16 µM (inactive) with SR; 12.7 µM (inactive) with RPMI-8226; 20.5 µM (inactive) in the assay on SN12C; 12.5 µM (inactive) in the assay on OVCAR-3; 36.1 µM (inactive) with TK-10.

Turning to `CCCCCCCCCCCCSC(=S)c1c(C)[nH]n(CCCCCCCCCCCC)c1=O`, the GI50 is 55.2 µM (inactive) in the assay on ACHN; > 10 µM (inactive) in the assay with M14; 73.1 µM (inactive) in the assay with KM-20L2; > 100 µM (inactive) in the assay with SNB-78; > 100 µM (inactive) in the assay on SF-539; > 100 µM (inactive) in the assay with DLD-1. In addition, the GI50 was > 100 µM (inactive) in the assay with SK-OV-3; > 100 µM (inactive) with SR; 94.8 µM (inactive) with RPMI-8226; 77.1 µM (inactive) with SN12C; 34.6 µM (inactive) in the assay with Malme-3M; > 100 µM (inactive) in the assay on OVCAR-3.
